Measurements taken from the supplement of paper PMC5908809.

Experiments:
[1] = tested on: normal NK cells expanded with K562-aAPC; assay: percent inhibition of viability; higher = more inhibition; details: 72 h, IL-2 2.5 ng/mL
Description: (§1)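 Drug sensitivity and resistance testing on K562-aAPC-expanded normal NK cells: 5 concentrations (10-fold steps over a 10,000-fold range), 72 h at 37 °C, viability by CellTiter-Glo normalised to DMSO and benzethonium chloride controls; DSS from the fitted curve.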

DERL-7 (IL-2 2.5 ng/mL) [2] = assay: as above; details: 72 h
IMC-1 (IL-2 20 ng/mL) [3] = assay: as above; details: 72 h
KAI3 (IL-2 2.5 ng/mL) [4] = assay: as above; details: 72 h
KHYG-1 (IL-2 2.5 ng/mL) [5] = assay: as above; details: 72 h
NK-92 (IL-2 2.5 ng/mL) [6] = assay: as above; details: 72 h
NK-YS (IL-2 2.5 ng/mL) [7] = assay: as above; details: 72 h
NKL (IL-2 2.5 ng/mL) [8] = assay: as above; details: 72 h
SNK-6 (IL-2 2.5 ng/mL) [9] = assay: as above; details: 72 h
YT (IL-2 2.5 ng/mL) [10] = assay: as above; details: 72 h
[11] = tested on: normal primary NK cells, pool 1 (3 donors) (IL-2 2.5 ng/mL); assay: as above; details: 72 h
[12] = tested on: normal primary NK cells, pool 1 (3 donors), resting (IL-2 0 ng/mL); assay: as above; details: 72 h
[13] = tested on: normal primary NK cells, pool 2 (3 donors) (IL-2 2.5 ng/mL); assay: as above; details: 72 h
[14] = tested on: normal primary NK cells, pool 3 (3 donors) (IL-2 2.5 ng/mL); assay: as above; details: 72 h
[15] = tested on: normal NK cells expanded with K562-aAPC; assay: drug sensitivity score (DSS) (DSS units); higher = more sensitive; extreme values may be limits of the assay; details: 72 h; IL-2 2.5 ng/mL
Description: as §1

DERL-7 (IL-2 2.5 ng/mL) [16] = assay: as above; details: 72 h
IMC-1 (IL-2 20 ng/mL) [17] = assay: as above; details: 72 h
KAI3 (IL-2 2.5 ng/mL) [18] = assay: as above; details: 72 h
KHYG-1 (IL-2 2.5 ng/mL) [19] = assay: as above; details: 72 h
NK-92 (IL-2 2.5 ng/mL) [20] = assay: as above; details: 72 h
NK-YS (IL-2 2.5 ng/mL) [21] = assay: as above; details: 72 h
NKL (IL-2 2.5 ng/mL) [22] = assay: as above; details: 72 h
SNK-6 (IL-2 2.5 ng/mL) [23] = assay: as above; details: 72 h
YT (IL-2 2.5 ng/mL) [24] = assay: as above; details: 72 h
[25] = tested on: normal primary NK cells, pool 1 (3 donors) (IL-2 2.5 ng/mL); assay: as above; details: 72 h
[26] = tested on: normal primary NK cells, pool 1 (3 donors), resting (IL-2 0 ng/mL); assay: as above; details: 72 h
[27] = tested on: normal primary NK cells, pool 2 (3 donors) (IL-2 2.5 ng/mL); assay: as above; details: 72 h
[28] = tested on: normal primary NK cells, pool 3 (3 donors) (IL-2 2.5 ng/mL); assay: as above; details: 72 h

CN1CCN(c2nc(C3=C(c4c[nH]c5ccccc45)C(=O)NC3=O)c3ccccc3n2)CC1 [Sotrastaurin] (max concentration tested 10000 nM)
percent inhibition of viability [%]
Details | 1 nM | 10 nM | 100 nM | 1000 nM | 10000 nM
DERL-7 (IL-2 2.5 ng/mL) [2] | -4.78 | -0.35 | 2.08 | 40.8 | 89
IMC-1 (IL-2 20 ng/mL) [3] | -5.62 | -0.79 | -3.9 | 0.37 | 14.4
KAI3 (IL-2 2.5 ng/mL) [4] | 1.68 | 5.93 | 0.83 | 15.7 | 68.5
KHYG-1 (IL-2 2.5 ng/mL) [5] | -1.7 | 2.28 | 1.66 | 16.2 | 86.7
NK-92 (IL-2 2.5 ng/mL) [6] | -7.26 | -8.85 | -22.3 | 14.4 | 67.9
NK-YS (IL-2 2.5 ng/mL) [7] | -6.15 | -1.7 | 5.97 | 11.9 | 48.6
NKL (IL-2 2.5 ng/mL) [8] | -0.06 | 2.68 | 21.7 | 45.5 | 80
SNK-6 (IL-2 2.5 ng/mL) [9] | -17.8 | -16.5 | -5.18 | -2.38 | 44.5
YT (IL-2 2.5 ng/mL) [10] | -2.44 | 0.13 | 0.38 | 16.3 | 34.6
[1] | -1.03 | -1.43 | 5.74 | 19.1 | 54.6
[11] | -5.39 | 7.06 | 18.6 | 27.9 | 44.3
[12] | -32.7 | 2.96 | -3.23 | 9.18 | -53.6
[13] | -13.5 | -3.77 | 5.41 | 15.2 | 41.4
[14] | -3.26 | -0.15 | 8.22 | 5.07 | 38.6

Details | drug sensitivity score
DERL-7 (IL-2 2.5 ng/mL) [16] | 9.93
IMC-1 (IL-2 20 ng/mL) [17] | 0.22
KAI3 (IL-2 2.5 ng/mL) [18] | 6.26
KHYG-1 (IL-2 2.5 ng/mL) [19] | 7.45
NK-92 (IL-2 2.5 ng/mL) [20] | 6.04
NK-YS (IL-2 2.5 ng/mL) [21] | 4.32
NKL (IL-2 2.5 ng/mL) [22] | 11.4
SNK-6 (IL-2 2.5 ng/mL) [23] | 2.08
YT (IL-2 2.5 ng/mL) [24] | 3.65
[15] | 5.13
[25] | 7.19
[26] | 0
[27] | 3.66
[28] | 2.75
